Measured values: patent publication US6743575B2, “Compositions and methods for the preservation of living tissues” (Biostore New Zealand Ltd., priority 1996, dated 2004)

Tested on: mouse embryos
Experiment: Storage of mouse embryos at 4° C., survival assessed by hatching in subsequent culture
Format: cell-based
Settings: for ranking of Class I and Class II solutes for hatching of stored embryos: storage 1-3 days at 4° C., Class I:Class II 1.6:1, 1.75 mM CaSO4
Procedure: The efficacy of the solutions of the present invention in the preservation of mouse embryos was tested as described below. As embryos consist of rapidly dividing cells, they are difficult to arrest, and therefore provide a sensitive test of storage solutions. Embryos also have the advantage that survival in storage can be assessed after 1-5 days by their ability to hatch in subsequent culture.
Viable mouse embryos were stored for periods of 1, 2 or 3 days at 4° C. in either PBS or an aqueous solution of either raffinose, trehalose, sucrose or lactose (Class I solutes), together with a solute selected from the group consisting of trimethyl amine oxide (TMAO), betaine, taurine, sarcosine, glucose, mannose, fructose, ribose, galactose, sorbitol, mannitol, inositol and taurine (Class II solutes), at a ratio of Class I solute to Class II solute of 1.6:1. Each Class I/Class II solution also contained calcium sulfate at a concentration of 1.75 mM. The solutions also contained 0.1-1% bovine serum albumin (BSA) and 25 mg/L of kanamycin sulfate. All reagents were obtained from Sigma Chemical Company (St. Louis, Mo.). Survival of the embryos was assessed by subsequent culture in Dulbecco's Modified Eagles Medium (DMEM, Life Technologies, Grand Island, N.Y.) and was expressed both as the number of live embryos present after storage and the number of embryos which hatched after 48 hours in culture at 37° C.
Mouse embryos were incubated with either sodium butyrate or a Class II solute at either, room temperature, 30° C. or 4° C. prior to storage in Solution 70/30 for up to five days at 4° C. […] Sodium butyrate replaced sodium chloride at the same concentration in PBS. FIGS. 8A, B and C show the percentage of mouse embryos hatching after 1, 2 and 3 days, respectively, in storage following pretreatment with sodium butyrate at concentrations of 5, 10 or 15 mM for either 10, 20 or 30 minutes. FIGS. 8D, E and F show the percentage of mouse embryos alive after 1, 2 and 3 days, respectively, in storage following pretreatment with sodium butyrate at concentrations of 5, 10 or 15 mM for either 10, 20 or 30 minutes. Pretreatment with sodium butyrate allowed up to 80% of embryos to hatch following three days of storage in Solution 70/30. After 5 days of storage in Solution 70/30 following pretreatment with higher concentrations of sodium butyrate, up to 70% of embryos hatched compared to 2% with no pretreatment (see FIG. 9). Embryos stored in PBS without pretreatment lasted no longer than 3 days. […] FIGS. 10A, B, C and D show the survival of mouse embryos after up to four days of storage in Solution 70/30 at 4° C. following pretreatment with 25 mM sodium butyrate for 5, 10 or 15 minutes at room temperature.

Structure (SMILES)	ranking of Class I and Class II solutes for hatching of stored embryos	embryos hatched (5 days of storage in Solution 70/30 after pretreatment with higher concentrations of sodium butyrate)	embryos hatching (three days of storage in Solution 70/30 at 4° C. after pretreatment with sodium butyrate)
OC[C@H]1O[C@H](OC[C@H]2O[C@H](O[C@]3(CO)O[C@H](CO)[C@@H](O)[C@@H]3O)[C@H](O)[C@@H](O)[C@@H]2O)[C@H](O)[C@@H](O)[C@H]1O [Raffinose, raffinose]	best Class I solute		
OC[C@H]1O[C@H](O[C@H]2O[C@H](CO)[C@@H](O)[C@H](O)[C@H]2O)[C@H](O)[C@@H](O)[C@@H]1O [trehalose]	second best		
CCCC(=O)[O-].[Na+] [sodium butyrate]		up to 70%	up to 80%
C[N+](C)(C)CC(=O)O [betaine]	second best		
C[N+](C)(C)[O-] [TMAO, trimethyl amine oxide]	best Class II solute		
